Data reported in patent US12410220B2, “Modulation of mammalian cell lineage by synthetic immodulins” (priority 2021, dated 2025).
Peptide text beside a SMILES is read from it.

Molecular target: T1, Nur77 (NR4A1) (Homo sapiens, UniProt P22736)
T1 construct: purchased Abcam Inc, Cambridge, MA
Assay: Experiment 4C binding to full-length Nur77
Conditions: 400 ng/well Nur77; 333 ng/well SA488-labelled peptide, 60 min; background subtracted
Description: 400 ng/well recombinant human Nur77 protein (NR4A1) purchased from Abcam Inc, Cambridge, MA, was adsorbed to wells of a 96-well plate for 90 minutes at room temperature, then blocked with 200 uL 1% BSA in PBS buffer overnight. The plate was washed with PBS and then 333 ng/well Streptavidin-Alexa 488 conjugate (SA488)-labelled imm3 or imm4 peptide was added. The plate was incubated for 60 min at room temperature, washed and counted in a standard fluorometer (excitation/emission 485/525 nm). Background (buffer alone) was subtracted.

T1 sequence (P22736 whole entry): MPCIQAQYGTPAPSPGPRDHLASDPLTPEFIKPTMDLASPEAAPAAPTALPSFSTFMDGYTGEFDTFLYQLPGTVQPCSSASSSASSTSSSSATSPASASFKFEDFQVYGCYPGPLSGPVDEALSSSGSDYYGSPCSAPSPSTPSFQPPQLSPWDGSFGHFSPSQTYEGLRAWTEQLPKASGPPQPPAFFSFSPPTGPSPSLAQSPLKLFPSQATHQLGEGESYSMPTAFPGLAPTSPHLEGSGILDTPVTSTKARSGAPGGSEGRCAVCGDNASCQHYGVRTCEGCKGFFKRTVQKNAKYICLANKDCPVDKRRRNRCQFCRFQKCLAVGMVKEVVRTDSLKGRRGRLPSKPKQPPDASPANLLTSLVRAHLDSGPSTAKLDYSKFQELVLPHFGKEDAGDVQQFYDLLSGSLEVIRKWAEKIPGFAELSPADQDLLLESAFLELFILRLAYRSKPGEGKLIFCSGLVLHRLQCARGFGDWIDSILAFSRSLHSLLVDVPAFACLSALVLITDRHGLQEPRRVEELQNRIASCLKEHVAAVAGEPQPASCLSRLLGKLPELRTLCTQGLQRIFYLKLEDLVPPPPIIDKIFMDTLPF

| Structure (SMILES) | Binding to Nur77 (NR4A1), normalized to imm3 binding=100 |
| --- | --- |
| CC(C)C[C@H](NC(=O)[C@H](C)NC(=O)[C@@H]1CCCN1C(=O)[C@H](Cc1c[nH]cn1)NC(=O)[C@H](CS)NC(=O)[C@H](CCC(N)=O)NC(=O)[C@H](CCCCN)NC(=O)[C@@H]1CCCN1C(=O)[C@H](Cc1c[nH]cn1)NC(=O)[C@H](Cc1ccccc1)NC(=O)[C@H](CC(N)=O)NC(=O)CNC(=O)[C@H](CC(N)=O)NC(=O)[C@@H](N)CCCNC(=N)N)C(=O)N[C@@H](CC(=O)O)C(=O)NCC(=O)N[C@@H](CCC(N)=O)C(=O)N[C@@H](CCCNC(=N)N)C(=O)NCC(=O)N[C@@H](CCCCN)C(=O)N[C@@H](CS)C(=O)N[C@@H](Cc1c[nH]c2ccccc12)C(=O)O [imm4] (H-RNGNFHPKQCHPALDGQRGKCW-OH; N-terminus and C-terminus assumed) | 0.3 ± 8.9 |
| N=C(N)NCCC[C@H](NC(=O)CNC(=O)[C@H](CCCCN)NC(=O)[C@H](CO)NC(=O)[C@@H]1CCCN1C(=O)[C@H](CCCNC(=N)N)NC(=O)[C@H](CS)NC(=O)[C@H](CCC(N)=O)NC(=O)[C@H](CCCCN)NC(=O)[C@H](CCCCN)NC(=O)[C@H](CCCCN)NC(=O)[C@H](Cc1ccc(O)cc1)NC(=O)[C@H](Cc1ccccc1)NC(=O)CNC(=O)[C@H](CCCCN)NC(=O)[C@@H](N)CCCCN)C(=O)N[C@@H](CCCCN)C(=O)N[C@@H](CCCNC(=N)N)C(=O)NCC(=O)N[C@@H](Cc1ccccc1)C(=O)N[C@@H](CS)C(=O)N[C@@H](Cc1c[nH]c2ccccc12)C(=O)O [imm3] (H-KKGFYKKKQCRPSKGRKRGFCW-OH; N-terminus and C-terminus assumed) | 100.0 ± 9.3 |
